{
  "source": "patent US20260117274A1",
  "about": "“ORTHOGONALLY CROSSLINKED PROTEINS, METHODS OF MAKING, AND USES THEREOF” (The Research Foundation for The State University of New York, priority 2022, published 2026)",
  "key": {"HEK293T cells": {"system": "HEK293T cells", "assay_type": "cell-based", "settings": "human, 24 h", "excerpt": "(§1) To examine whether CATKs are compatible with genetic code expansion in mammalian cells, we first performed a cell viability assay by treating HEK293T cells with CATK-1 and -2 at various concentrations. […] We then cotransfected HEK293T cells with two plasmids: one encodes CATKRS/tRNA^Pyl, and the other encodes the mCherry-TAG-EGFP-HA reporter. The transfected cells were allowed to grow in DMEM supplemented with 10% FBS in the absence or presence of CATK-1.\nCell viability assay. One hundred μL exponentially growing HEK293T cells were seeded into a 96-well plate at a density of 5×10^5 cells per ml. After 24 h, the cells were treated with varying concentrations of CATK amino acids and then incubated at 37° C. for 24 h. Then, 10 μL CCK-8 solution (Dojindo) was added to each well and the cells were further incubated in 37° C. incubator for 1 h. The plates were read immediately using Biotek microtiter plate reader at 450 nm."}, "CATKRS": {"target": "T1, CATKRS (Methanosarcina mazei, UniProt Q8PWY1, C348F/L309A/Y306V/Y384F)", "T1 construct": "expressed in transfected cells; host or cells: E. coli BL21(DE3) transformed with pEVOL-CATKRS", "T1 sequence (Q8PWY1 whole entry Y306V/L309A/C348F/Y384F)": "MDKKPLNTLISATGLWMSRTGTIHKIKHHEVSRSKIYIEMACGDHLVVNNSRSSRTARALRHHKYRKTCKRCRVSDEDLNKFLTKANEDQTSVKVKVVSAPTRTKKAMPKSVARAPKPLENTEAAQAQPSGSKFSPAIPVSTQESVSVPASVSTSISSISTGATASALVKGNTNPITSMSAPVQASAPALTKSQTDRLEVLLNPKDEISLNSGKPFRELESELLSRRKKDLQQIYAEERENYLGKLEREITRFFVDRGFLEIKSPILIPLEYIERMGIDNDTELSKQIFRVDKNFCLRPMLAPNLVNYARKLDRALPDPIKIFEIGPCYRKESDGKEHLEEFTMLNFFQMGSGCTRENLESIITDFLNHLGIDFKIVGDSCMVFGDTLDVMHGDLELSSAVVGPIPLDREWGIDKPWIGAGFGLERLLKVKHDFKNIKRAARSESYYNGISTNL", "assay": "Fluorescence-based detection of CATK incorporation into sfGFP-Q204TAG in BL21(DE3) cells", "assay_type": "cell-based", "settings": "1 mM CATK", "excerpt": "(§2) To identify pyrrolysine-tRNA synthetase (PylRS) variants that can charge CATKs, we co-transformed BL21(DE3) cells with two plasmids: pEVOL-PylRS encoding PylRS and tRNACUA, and pET-sfGFP-Q204TAG encoding sfGFP bearing an amber codon. We screened a panel of PylRS variants (Table 1), and found one carrying Y306V, L309A, C348F, and Y384F mutations, hereafter referred to as CATKRS, can charge CATK-1, -2, -4, and -7 site-specifically into sfGFP (FIGS. 2b and 10). The incorporations were also confirmed by SDS-PAGE (FIG. 10) and QTOF-LC/MS analyses (FIGS. 2c and 11). Some amount of GSH adducts (˜30%) were detected, presumably due to the high reactivity of CATKs at position-204, a site on sfGFP that is completely solvent exposed.\nSite-specific incorporation of CATK into sfGFP. BL21(DE3) cells (50 μL) were co-transformed with the pET-sfGFP-Q204TAG and pEVOL-CATKRS plasmids using the heat shock method. The cells were recovered in 900 μL SOC at 37° C. for 1 hour before plating onto a Luria-Bertani (LB) agar plate containing 100 μg/mL ampicillin and 34 μg/mL chloramphenicol. A single colony from the plate was used to inoculate 6 mL LB broth containing 100 μg/mL ampicillin and 34 μg/mL chloramphenicol. One hundred twenty […] overnight culture was used to inoculate 12 mL LB broth containing the same concentrations of antibiotics. […] The culture was divided into two 6-mL portions. […] The cultures were incubated in an incubator-shaker (37° C., 280 rpm) for 8 hours. […] The supernatant was directly used for fluorescence tests after sonication and centrifugation. […] The mixture was incubated for 2 hours with gentle shaking."}, "[1]": {"system": "mCherry-TAG-EGFP-HA reporter", "assay": "Site-specific incorporation into mCherry-TAG-EGFP in HEK293T cells", "assay_type": "cell-based, Human", "settings": "CATKRS/tRNA^Pyl, 0.5 mM CATK-1, fluorescence microscopy and western blot", "excerpt": "as §1\nSite-specific incorporation of CATK-1 into mCherry-TAG-EGFP in mammalian cells. Human Embryonic Kidney 293T (HEK293T) cells were seeded in a 12-well plate and grown in DMEM supplemented with 10% FBS (HyClone™ GE Healthcare Life Sciences) and 10 μg/mL Gentamycin (Gibco) and 2 μg/mL Plasmocin at 37° C., 5% CO2 until ˜90% confluency. The medium was replaced with DMEM, and cells were transfected by using polyethylenimine (Sigma-Aldrich) in Opti-MEM® (Gibco) with two plasmids (one encoding CATKRS/tRNAPyl CUA pair and another encoding mCherry-TAG-EGFP-HA). Six hours post-transfection, the medium was replaced with fresh DMEM with 10% FBS in the presence or absence of 0.5 mM CATK-1. After 24 hours, live cell images were recorded using the Lionheart™ FX automated microscope (BioTek). The cells were lysed by modified RIPA buffer (25 mM Tris HCl, pH 7.4, 150 mM NaCl, 1% NP-40, 1% sodium deoxycholate, 0.1% SDS, 1 mM EDTA, 1 mM PSMF). […]"}, "[2]": {"settings": "cited from earlier work"}, "[3]": {"assay": "NMR-based stability assay toward glutathione", "assay_type": "physicochemical", "settings": "10 mM glutathione in PBS for 3 days", "excerpt": "We envisioned this acyl transfer-based crosslinking could proceed under neutral conditions if we can identify an appropriate genetically encoded leaving group. To this end, we considered a panel of azoles with pKa values ranging from 19.8 to 8.2, and a varying degree of leaving group effect (FIG. 1a). […] Thus, we designed a series of N-carboxy-4-aryl-1,2,3-triazole-containing lysines (CATK-1-7) as well as three analogous triazolyl lysines, CATK-8, -8a, and -9, for comparison purposes (FIG. 1b). For the synthesis of CATK-1-9, the critical step involved the triphosgene-mediated coupling of aryl- or alkyl-substituted triazoles with a protected lysine. While there was no apparent selectivity for N^2-carbamoylated CATKs, the two regioisomers can be readily separated by flash chromatography. After deprotection, CATK-1-9 were obtained in 7-52% yields. […] Since analogous 1,2,4-triazoles have also been used in designing small-molecule probes for serine hydrolases, we synthesized 1,2,4-triazole-based CATK-9 in four steps with an overall yield of 43%.\nIn our efforts to identify genetically encoded amino acids that are stable under physiological conditions yet reactive upon photoactivation or through proximity effect, we were intrigued by β-lactam, a venerable chemical moiety found in penicillin and other β-lactam class of antibiotics. […]"}, "wild-type PylRS": {"target": "T2, wild-type PylRS (Methanosarcina mazei, UniProt Q8PWY1)", "T2 construct": "expressed in transfected cells; host or cells: E. coli BL21(DE3) transformed with pEVOL-PylRS", "T2 sequence (Q8PWY1 whole entry)": "as the sequence (Q8PWY1 whole entry Y306V/L309A/C348F/Y384F) above, with V306Y, A309L, F348C, F384Y counted along it", "assay": "Fluorescence-based detection of BeLaK incorporation into sfGFP-Q204TAG", "assay_type": "cell-based", "settings": "1 mM BeLaK", "excerpt": "(§3) To identify an aminoacyl-tRNA synthetase/tRNA pair for charging two phenylalanine derivatives, we screened our collection of pyrrolysine-tRNA synthetases (PylRS) (Table 1) using superfolder green fluorescent protein bearing an amber codon at position-204 (sfGFP-Q204TAG) as a reporter without success (FIG. 37). In parallel, to our delight, we found wild-type PylRS efficiently charges BeLaK into sfGFP-Q204TAG, with the cell lysate showing a 75-fold increase in fluorescence over the background, similar to BocK, a known substrate for wild-type PylRS (FIG. 32b). We also obtained the crystal structure of a protected BeLaK analog S11 (FIG. 38). We note the lactam ring forms an intramolecular H-bond with the lysine ε-N—H (FIG. 32a), mimicking the pyrroline ring in pyrrolysine—the native substrate of PylRS.\nSite-specific incorporation of BeLaK into sfGFP. BL21(DE3) cells (50 μL) were co-transformed with the pET-sfGFP-Q204TAG and pEVOL-PylRS plasmids using the heat shock method. The cells were recovered in 900 μL SOC at 37° C. for 1 hour before plating onto a Luria-Bertani (LB) agar plate containing 100 μg/mL ampicillin and 34 μg/mL chloramphenicol. A single colony from the plate was used to inoculate 6 mL LB broth containing 100 μg/mL ampicillin and 34 μg/mL chloramphenicol. […] The supernatant was directly used for fluorescence tests after sonication and centrifugation. […]"}, "[4]": {"assay": "Stability under bacterial culture conditions (intact mass of sfGFP mutants)", "excerpt": "as §2\nas §3, with “We note the lactam ring forms an intramolecular H-bond with the lysine ε-N—H (FIG. 32a), mimicking the pyrroline ring in pyrrolysine—the native substrate of PylRS.” left out"}},
  "data": [
    {"smiles": "N[C@@H](CCCCNC(=O)n1ncc(-c2ccccc2)n1)C(=O)O", "note": "[CATK-1, N^6-(4-Phenyl-2H-1,2,3-triazole-2-carbonyl)-L-lysine]", "values": [
      {"measurement": "concentrations at which cytotoxicity was not detected", "setting": "HEK293T cells", "value": "≤ 500", "unit": "µM"},
      {"measurement": "site-specific charging into sfGFP by CATKRS", "setting": "CATKRS", "value": "can charge"},
      {"measurement": "incorporation into mCherry-TAG-EGFP-HA", "setting": "[1]", "value": "successful CATK-1 incorporation"}
    ]},
    {"smiles": "N[C@@H](CCCCNC(=O)n1ncc(-c2cccs2)n1)C(=O)O", "note": "[CATK-4, N^6-(4-(Thiophen-2-yl)-2H-1,2,3-triazole-2-carbonyl)-L-lysine]", "values": [
      {"measurement": "site-specific charging into sfGFP by CATKRS", "setting": "CATKRS", "value": "can charge"}
    ]},
    {"smiles": "c1cn[nH]n1", "note": "[2H-1,2,3-trizole]", "values": [
      {"measurement": "pKa", "setting": "[2]", "value": 9.4}
    ]},
    {"smiles": "N[C@@H](CCCCNC(=O)N1CCC1=O)C(=O)O", "note": "[BeLaK, N^6-(2-Oxoazetidine-1-carbonyl)-L-lysine]", "values": [
      {"measurement": "stability after incubation with glutathione", "setting": "[3]", "value": "remained intact"},
      {"measurement": "increase in fluorescence of cell lysate over the background", "setting": "wild-type PylRS", "value": 75, "unit": "fold"},
      {"measurement": "stability under bacterial culture conditions", "setting": "[4]", "value": "stable under bacterial culture conditions"}
    ]},
    {"smiles": "N[C@@H](Cc1ccc(N2CCC2=O)cc1)C(=O)O", "note": "[BeLaF-2, (S)-2-amino-3-(4-(2-oxoazetidin-1-yl)phenyl)propanoic acid]", "values": [
      {"measurement": "stability after incubation with glutathione", "setting": "[3]", "value": "remained intact"}
    ]},
    {"smiles": "Cn1cccc1-c1cnn(C(=O)NCCCC[C@H](N)C(=O)O)n1", "note": "[CATK-7, N^6-(4-(1-Methyl-1H-pyrrol-2-yl)-2H-1,2,3-triazole-2-carbonyl)-L-lysine]", "values": [
      {"measurement": "site-specific charging into sfGFP by CATKRS", "setting": "CATKRS", "value": "can charge"}
    ]}
  ]
}
